Molecular target: T1, recombinant human KLK5 (Homo sapiens, UniProt Q9Y337)
T1 construct: purchased Novoprotein or R&D Systems C415 or 1108-SE
T1 sequence (Q9Y337 23-293): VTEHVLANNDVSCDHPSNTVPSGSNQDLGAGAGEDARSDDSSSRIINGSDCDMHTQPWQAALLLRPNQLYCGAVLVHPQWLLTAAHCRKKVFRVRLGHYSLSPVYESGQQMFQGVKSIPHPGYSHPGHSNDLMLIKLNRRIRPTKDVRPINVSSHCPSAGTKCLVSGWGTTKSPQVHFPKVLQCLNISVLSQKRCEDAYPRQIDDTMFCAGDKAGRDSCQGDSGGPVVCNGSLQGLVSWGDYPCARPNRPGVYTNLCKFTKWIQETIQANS
Assay: Kallikrein (KLK) 5 enzymatic assay (Boc-VPR-AMC fluorogenic substrate)
Format: biochemical
Settings: recombinant human KLK5 0.1 μg/well, Boc-VPR-AMC 100 μM, pH 7.5, room temperature, 1% DMSO; tested a minimum of three times
Procedure, shortened: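 Fluorogenic rate assay at pH 7.5 (0.1 M NaH2PO4, 1% DMSO, room temperature), run at least three times per compound. Compound was premixed with 0.1 μg/well recombinant human KLK5 before adding 100 μM Boc-VPR-AMC; AMC release was read at ex 380/em 460 nm, and IC50 derived from inhibition of rate vs DMSO control.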

Row | IC50 [nM] | SMILES
1 | < 1000 | Nc1nccc2c(-c3cnc4c(c3)c(COc3ccccc3CC(=O)O)cn4C3CCOC3)cccc12 (stereo not shown) [Compound 279g, 2-(2-((5-(1-aminoisoquinolin-5-yl)-1-(tetrahydrofuran-3-yl)-1H-pyrrolo[2,3-b]pyridin-3-yl)methoxy)phenyl)acetic acid]
2 | < 1000 | CCC(=O)N1CCC2(CC1)CC(Oc1ccccc1CC(=O)O)c1cc(-c3cccc4c(N)nccc34)ccc12 (single isomer, unassigned; (-)) [Compound 385e, (−)-2-(2-((5-(1-aminoisoquinolin-5-yl)-1′-propionyl-2,3-dihydrospiro[indene-1,4′-piperidin]-3-yl)oxy)phenyl)acetic acid]
3 | < 1000 | Nc1nccc2ccc(-c3ccc4c(c3)[C@H](Oc3ccccc3CC(=O)O)CC43CCN(CC(=O)O)CC3)cc12 [Compound 414c, (R)-2-(2-((5-(1-aminoisoquinolin-7-yl)-1′-(carboxymethyl)-2,3-dihydrospiro[indene-1,4′-piperidin]-3-yl)oxy)phenyl)acetic acid]
4 | 1000 to 10000 | Nc1nccc2ccc(-c3ccc4nn(C5CCC5)c(COc5cc(F)ccc5CC(=O)O)c4c3)cc12 [Compound 149d, 2-(2-((5-(1-aminoisoquinolin-7-yl)-2-cyclobutyl-2H-indazol-3-yl)methoxy)-4-fluorophenyl)acetic acid]
5 | 1000 to 10000 | COc1ccc(OCc2c3cc(-c4ccc5ccnc(N)c5c4)ccc3nn2C2CCC2)c(CC(=O)O)c1 [Compound 157d, 2-(2-((5-(1-aminoisoquinolin-7-yl)-2-cyclobutyl-2H-indazol-3-yl)methoxy)-5-methoxyphenyl)acetic acid]
6 | 1000 to 10000 | N#Cc1cccc(CC(=O)O)c1OCc1nn(C2CCC2)c2ccc(-c3cccc4c(N)nccc34)cc12 [Compound 175b, 2-(2-((5-(1-aminoisoquinolin-5-yl)-1-cyclobutyl-1H-indazol-3-yl)methoxy)-3-cyanophenyl)acetic acid]

Second part, the molecule before the results:

Row | SMILES | IC50 [nM]
7 | Nc1nccc2c(-c3ccc4c(c3)[C@H](Oc3ccccc3CC(=O)O)CC43CCN(CC(=O)O)CC3)cccc12 [Compound 415b, (R)-2-(2-((5-(1-aminoisoquinolin-5-yl)-1′-(carboxymethyl)-2,3-dihydrospiro[indene-1,4′-piperidin]-3-yl)oxy)phenyl)acetic acid] | < 1000
8 | Nc1nccc2c(-c3ccc4c(c3)c(COc3ccccc3CC(=O)O)nn4C3CCCCO3)cccc12 (stereo not shown) [Compound 92b, 2-(2-((5-(1-aminoisoquinolin-5-yl)-1-(tetrahydro-2H-pyran-2-yl)-1H-indazol-3-yl)methoxy)phenyl)acetic acid] | < 1000
9 | N#Cc1cccc(CC(=O)O)c1O[C@@H]1CCc2ccc(-c3ccc4ccnc(N)c4c3)cc21 [Compound 429d, (R)-2-(2-((6-(1-aminoisoquinolin-7-yl)-2,3-dihydro-1H-inden-1-yl)oxy)-3-cyanophenyl)acetic acid] | 1000 to 10000
10 | Nc1nccc2ccc(-c3ccc4c(c3)c(COc3ccc(F)cc3CC(=O)O)nn4C3CCC3)cc12 [Compound 166d, 2-(2-((5-(1-aminoisoquinolin-7-yl)-1-cyclobutyl-1H-indazol-3-yl)methoxy)-5-fluorophenyl)acetic acid] | < 1000
11 | Cn1nc(COc2ccccc2CC(=O)O)c2cc(-c3ccc4ccnc(N)c4c3)ccc21 [Compound 57b, 2-(2-((5-(1-aminoisoquinolin-7-yl)-1-methyl-1H-indazol-3-yl)methoxy)phenyl)acetic acid] | < 1000
12 | CC(C)n1nc(COc2ccccc2CC(=O)O)c2cc(-c3ccc4ccnc(N)c4c3)ccc21 [Compound 100b, 2-(2-((5-(1-aminoisoquinolin-7-yl)-1-isopropyl-1H-indazol-3-yl)methoxy)phenyl)acetic acid] | < 1000
13 | Cc1cccc(OC2CC3(CCN(C(=O)OCC(C)C)CC3)c3ccc(-c4cccc5c(N)nccc45)cc32)c1CC(=O)O (stereo not shown) [Compound 451b, 2-(2-((5-(1-aminoisoquinolin-5-yl)-1′-(isobutoxycarbonyl)-2,3-dihydrospiro[indene-1,4′-piperidin]-3-yl)oxy)-6-methylphenyl)acetic acid] | < 1000

Reference: patent publication US20240239752A1, “BICYCLIC HETEROAROMATIC INHIBITORS OF KLK5” (BioCryst Pharmaceuticals, Inc., priority 2021, published 2024)
